What was measured:
[1] = Inhibition of HCV genotype 1b NS5B RNA dependent RNA polymerase assessed as reduction in triphosphate activity; set-up: species or system Hepatitis C virus subtype 1b
[2] = Inhibition of HCV genotype 4a NS5B RNA dependent RNA polymerase assessed as reduction in triphosphate activity; set-up: species or system Hepatitis C virus subtype 4a
[3] = Inhibition of HCV genotype 3a NS5B RNA dependent RNA polymerase assessed as reduction in triphosphate activity; set-up: species or system Hepatitis C virus subtype 3a
Hepatitis C virus [4] = experiment: Antiviral activity against HCV genotype 1a infected in human HuH7 cells by replicon based assay; type: functional, cell-based, Hepacivirus hominis; details: subtype 1a, Huh-7
Hepatitis C virus [5] = experiment: Antiviral activity against HCV genotype 1b infected in human HuH7 cells by replicon based assay; type: functional, cell-based, Hepacivirus hominis; details: Huh-7
[6] = Inhibition of HCV genotype 2a NS5B RNA dependent RNA polymerase assessed as reduction in triphosphate activity; set-up: species or system Hepatitis C virus subtype 2a
[7] = Cytotoxicity against human HuH7 cells; type: cell-based, Huh-7
[8] = Drug metabolism in human HuH7 cells bearing HCV replicons assessed as formation of triphosphates at 10 uM after 72 hrs by liquid chromatography coupled to triple quadrupole mass spectrometry; type: ADME, cell-based; details: huh-7, 72 h
Hepatitis C virus [9] = experiment: Antiviral activity against HCV genotype 2a infected in human HuH7 cells by replicon based assay; type: functional, cell-based, Hepacivirus hominis; details: Huh-7
[10] = Drug metabolism in human HuH7 cells bearing HCV replicons assessed as formation of uridine-type triphosphates at 10 uM after 72 hrs by liquid chromatography coupled to triple quadrupole mass spectrometry; type: ADME, cell-based; details: huh-7, 72 h

| Compound | IC50 ([1]; read-out: IC50) [µM] | EC50 (Hepatitis C virus [4]) [µM] | EC50 (Hepatitis C virus [5]) [µM] | further results |
| --- | --- | --- | --- | --- |
| C[C@@]1(F)[C@H](O)[C@@H](CO)O[C@H]1n1ccc(=O)[nH]c1=O | 0.7 | > 89 | > 89 | IC50 [2]: 0.7 µM; IC50 [3]: 0.7 µM; IC50 [6]: 0.7 µM |
| C[C@@]1(O)[C@H](O)[C@@H](CO)O[C@H]1n1ccc(N)nc1=O | 1.7 |  |  |  |
| CC(C)OC(=O)[C@H](C)N[P@](=O)(OC[C@H]1O[C@@](C#N)(n2ccc(=O)[nH]c2=O)[C@](C)(F)[C@@H]1O)Oc1ccccc1 |  |  | 63.5 | CC50 [7]: > 89 µM; Drug metabolism [8]: metabolite_detected; EC50 (Hepatitis C virus [9]): > 88 µM |
| CC(C)OC(=O)[C@H](C)N[P@](=O)(OC[C@H]1O[C@@](C#N)(n2ccc(N)nc2=O)[C@](C)(F)[C@@H]1O)Oc1ccccc1 |  | 2.9 | 17.6 | Drug metabolism [10]: metabolite_notdetected; CC50 [7]: > 89 µM; Drug metabolism [8]: metabolite_detected; EC50 (Hepatitis C virus [9]): 2.3 µM |
| C[C@@]1(O)[C@H](O)[C@@H](CO)O[C@@]1(C#N)n1ccc(N)nc1=O | 17.7 | 76 | > 89 |  |
| C[C@@]1(F)[C@H](O)[C@@H](CO)O[C@@]1(C#N)n1ccc(N)nc1=O | 57 | > 89 | > 89 |  |
| C[C@@]1(F)[C@H](O)[C@@H](CO)O[C@H]1n1ccc(N)nc1=O |  | 0.6 | 2.3 | Ki [1]: 0.06 µM |

Now from value to compound, other results behind:

| IC50 ([1]; read-out: IC50) [µM] | EC50 (Hepatitis C virus [4]) [µM] | EC50 (Hepatitis C virus [5]) [µM] | Compound | further results |
| --- | --- | --- | --- | --- |
| 1.9 |  | 13.1 | C[C@@]1(O)[C@H](O)[C@@H](CO)O[C@H]1n1ccc(=O)[nH]c1=O |  |
|  | > 89 | > 89 | C[C@@]1(F)[C@H](O)[C@@H](CO)O[C@@]1(C#N)n1ccc(=O)[nH]c1=O | IC50 [1]: Not Active |
| 27 | > 89 | > 89 | C[C@@]1(O)[C@H](O)[C@@H](CO)O[C@@]1(C#N)n1ccc(=O)[nH]c1=O |  |

Source: ChEMBL document CHEMBL3396979, “Synthesis and characterization of 1'-C-cyano-2'-fluoro-2'-C-methyl pyrimidine nucleosides as HCV polymerase inhibitors” (Bioorg Med Chem Lett, 2015)
